The assay has as its target T1, Met receptor (EGFR/Met chimeric cells, EMR) (Homo sapiens, UniProt P08581).
T1 construct: expressed in transfected cells; the other entry of the earlier key: EGFR (P00533, Epidermal growth factor receptor)
Briefly: Met Autophosphorylation Assay. It is filed as biochemical. To be noted: protocol P.130. A digest of the protocol:
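Transiently transfected EGFR/Met chimeric (EMR) cells were lysed in HNTG with 1 mM PMSF. Met was captured on plates coated with goat anti-rabbit IgG, then rabbit anti-Met (C-28), using 90 μg lysate/100 μl for 60 min at room temperature. Phosphotyrosine was read by ELISA.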
T1 sequence (P08581 with tags, fused parts or gaps): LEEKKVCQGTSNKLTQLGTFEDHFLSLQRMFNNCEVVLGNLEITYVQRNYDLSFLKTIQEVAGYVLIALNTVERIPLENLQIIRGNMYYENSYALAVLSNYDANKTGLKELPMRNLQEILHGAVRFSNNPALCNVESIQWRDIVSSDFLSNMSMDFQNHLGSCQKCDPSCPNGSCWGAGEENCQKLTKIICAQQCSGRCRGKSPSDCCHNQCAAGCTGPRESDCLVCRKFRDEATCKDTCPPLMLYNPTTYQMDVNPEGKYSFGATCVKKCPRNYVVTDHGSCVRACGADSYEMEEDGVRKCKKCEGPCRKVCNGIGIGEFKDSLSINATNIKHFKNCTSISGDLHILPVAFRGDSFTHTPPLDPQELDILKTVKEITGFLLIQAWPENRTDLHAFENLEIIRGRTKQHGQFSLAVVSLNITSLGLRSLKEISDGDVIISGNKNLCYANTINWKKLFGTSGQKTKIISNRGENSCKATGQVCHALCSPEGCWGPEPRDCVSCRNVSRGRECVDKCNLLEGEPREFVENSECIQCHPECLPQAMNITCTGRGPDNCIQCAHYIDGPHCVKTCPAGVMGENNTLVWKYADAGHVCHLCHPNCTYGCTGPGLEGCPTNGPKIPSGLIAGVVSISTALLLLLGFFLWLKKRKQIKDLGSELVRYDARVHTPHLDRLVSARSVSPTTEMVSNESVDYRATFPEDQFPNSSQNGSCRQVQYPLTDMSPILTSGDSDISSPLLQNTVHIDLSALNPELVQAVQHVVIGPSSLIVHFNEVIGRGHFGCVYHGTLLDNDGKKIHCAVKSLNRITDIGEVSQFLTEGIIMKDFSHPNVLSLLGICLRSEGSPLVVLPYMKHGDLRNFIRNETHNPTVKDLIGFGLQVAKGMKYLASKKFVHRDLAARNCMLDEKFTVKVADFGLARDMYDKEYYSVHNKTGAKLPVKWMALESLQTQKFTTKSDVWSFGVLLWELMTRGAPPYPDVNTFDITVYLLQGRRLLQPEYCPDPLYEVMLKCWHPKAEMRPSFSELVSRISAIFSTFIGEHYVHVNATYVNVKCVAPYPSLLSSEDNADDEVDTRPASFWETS
For `CNS(=O)(=O)c1ccc2c(c1)C(=Cc1ccc(OC)c(F)c1)C(=O)N2` [10737/D06], the “Met Kinase % Inhibition (P.130)” value stood at 37.4%.
The result for `Cc1ccc(C=C2C(=O)Nc3ccc(I)cc32)c(C)c1` [10737/B03] reads 86.3%.
For `Cc1c(Br)cc(Br)c2c1C(=Cc1ccccc1Cl)C(=O)N2` [10736/H11], the “Met Kinase % Inhibition (P.130)” value is given as 41.5%.
To `CCOc1ccc(C=C2C(=O)Nc3ccc(Br)c(C)c32)cc1` [10737/C02] belongs 30.6%; to `O=C1Nc2c(Br)cc(Br)cc2C1=Cc1cccc(F)c1F` [10737/A05], 58.9%.
`COc1ccc(C=C2C(=O)Nc3ccc(S(=O)(=O)N4CCOCC4)cc32)cc1F` [10737/F06]: the “Met Kinase % Inhibition (P.130)” value was determined as 62.8%.
The result for `Cc1ccc(C=C2C(=O)Nc3ccc(Br)c(C)c32)c(C)c1` [10737/C03] reads 52.5%; that for `O=C1Nc2ccc(S(=O)(=O)N3CCOCC3)cc2C1=Cc1cccc(F)c1F` [10737/F05], 67.1%.
The result for `CCOc1ccc(C=C2C(=O)Nc3c(Br)cc(Br)cc32)cc1` [10737/A02] reads 53.2%.
The result for `O=C1Nc2ccc(S(=O)(=O)N3CCOCC3)cc2C1=Cc1cccc(Oc2cccc(C(F)(F)F)c2)c1` [10737/F11] reads 75.6%; that for `O=C1Nc2c(Br)cc(Br)cc2C1=Cc1ccc2ccccc2c1` [10737/A08], 28.3%.
For `Cc1c(Br)ccc2c1C(=Cc1cccc(F)c1F)C(=O)N2` [10737/C05], the “Met Kinase % Inhibition (P.130)” value stood at 81.8%.
To `CCOc1ccc(C=C2C(=O)Nc3ccc(S(=O)(=O)NC)cc32)cc1` [10737/D02] belongs 27.8%.
To `COc1ccc(C=C2C(=O)Nc3ccc(CCCl)cc32)cc1F` [10737/G06] belongs 50.7%; to `CCOc1ccc(C=C2C(=O)Nc3ccc(I)cc32)cc1` [10737/B02], 85.0%; to `O=C1Nc2ccc(I)cc2C1=Cc1cccc(Oc2cccc(C(F)(F)F)c2)c1` [10737/B11], 78.8%.
In the case of `Cc1c(Br)cc(Br)c2c1C(=Cc1cc(F)ccc1F)C(=O)N2` [10737/H04], the “Met Kinase % Inhibition (P.130)” value was 63.0%.
The result for `O=C1Nc2ccc(CCCl)cc2C1=Cc1ccc2ccccc2c1` [10737/G08] reads 31.2%; that for `O=C1Nc2ccc(CCCl)cc2C1=Cc1ccc(Oc2ccccc2)cc1` [10737/G09], 37.9%.
For the compound `Cc1ccc(C=C2C(=O)Nc3ccc(S(=O)(=O)N4CCOCC4)cc32)c(C)c1` [10737/F03], the “Met Kinase % Inhibition (P.130)” value was found to be 28.0%.
The result for `Cc1c(Br)ccc2c1C(=Cc1cccc(Oc3cccc(C(F)(F)F)c3)c1)C(=O)N2` [10737/C11] reads 34.0%; that for `O=C1Nc2ccc(S(=O)(=O)Nc3ccc(C(F)(F)F)cc3)cc2C1=Cc1cccc(Oc2cccc(C(F)(F)F)c2)c1` [10737/E11], 24.8%; that for `COc1ccc(C=C2C(=O)Nc3c(Br)cc(Br)c(C)c32)cc1F` [10737/H06], 28.7%.
`CC(C)(C)c1ccc(Oc2cccc(C=C3C(=O)Nc4c(Br)cc(Br)cc43)c2)cc1` [10737/A10]: the “Met Kinase % Inhibition (P.130)” value came out at 15.5%.
To `Cc1c(Br)ccc2c1C(=Cc1cccc(Oc3ccc(C(C)(C)C)cc3)c1)C(=O)N2` [10737/C10] belongs 60.0%; to `CC(C)(C)c1ccc(Oc2cccc(C=C3C(=O)Nc4ccc(CCCl)cc43)c2)cc1` [10737/G10], 22.8%; to `O=C1Nc2ccc(S(=O)(=O)Nc3ccc(C(F)(F)F)cc3)cc2C1=Cc1cccc(F)c1F` [10737/E05], 80.9%.
The result for `CNS(=O)(=O)c1ccc2c(c1)C(=Cc1cccc(F)c1F)C(=O)N2` [10737/D05] reads 41.8%; that for `CC(C)(C)c1ccc(Oc2cccc(C=C3C(=O)Nc4ccc(I)cc43)c2)cc1` [10737/B10], 84.7%; that for `O=C1Nc2ccc(S(=O)(=O)N3CCOCC3)cc2C1=Cc1cc(F)ccc1F` [10737/F04], 62.8%.
As for `Cc1ccc(C=C2C(=O)Nc3c(Br)cc(Br)cc32)c(C)c1` [10737/A03], the “Met Kinase % Inhibition (P.130)” value is on record as 58.9%.
To `O=C1Nc2ccc(CCCl)cc2C1=Cc1cc(F)ccc1F` [10737/G04] belongs 49.1%; to `CC(C)(C)c1ccc(Oc2cccc(C=C3C(=O)Nc4ccc(S(=O)(=O)N5CCOCC5)cc43)c2)cc1` [10737/F10], 78.6%; to `Cc1ccc(C)c(C=C2C(=O)Nc3ccc(S(=O)(=O)Nc4ccc(C(F)(F)F)cc4)cc32)c1` [10737/E07], 43.1%.
The result for `CNS(=O)(=O)c1ccc2c(c1)C(=Cc1ccc3ccccc3c1)C(=O)N2` [10737/D08] reads 42.0%.
To `CCOc1ccc(C=C2C(=O)Nc3ccc(CCCl)cc32)cc1` [10737/G02] belongs 32.2%; to `CCOc1ccc(C=C2C(=O)Nc3ccc(S(=O)(=O)N4CCOCC4)cc32)cc1` [10737/F02], 67.4%; to `O=C1Nc2ccc(S(=O)(=O)Nc3ccc(C(F)(F)F)cc3)cc2C1=Cc1ccc2ccccc2c1` [10737/E08], 61.9%.
Regarding `O=C1Nc2ccc(S(=O)(=O)Nc3ccc(C(F)(F)F)cc3)cc2C1=Cc1cc(F)ccc1F` [10737/E04], the “Met Kinase % Inhibition (P.130)” value worked out at 79.3%.
Regarding `O=C1Nc2ccc(CCCl)cc2C1=Cc1cccc(F)c1F` [10737/G05], the “Met Kinase % Inhibition (P.130)” value is reported as 53.2%.
To `O=C1Nc2ccc(I)cc2C1=Cc1ccc2ccccc2c1` [10737/B08] belongs 84.1%; to `O=C1Nc2ccc(S(=O)(=O)N3CCOCC3)cc2C1=Cc1ccc2ccccc2c1` [10737/F08], 76.1%; to `Cc1c(Br)cc(Br)c2c1C(=Cc1ccccc1F)C(=O)N2` [10736/H08], 33.4%.
The result for `CC(C)(C)c1ccc(Oc2cccc(C=C3C(=O)Nc4ccc(S(=O)(=O)Nc5ccc(C(F)(F)F)cc5)cc43)c2)cc1` [10737/E10] reads 49.3%; that for `CNS(=O)(=O)c1ccc2c(c1)C(=Cc1cc(F)ccc1F)C(=O)N2` [10737/D04], 33.5%; that for `CNS(=O)(=O)c1ccc2c(c1)C(=Cc1cccc(Oc3ccc(C(C)(C)C)cc3)c1)C(=O)N2` [10737/D10], 24.8%.
To `Cc1ccc(C)c(C=C2C(=O)Nc3ccc(CCCl)cc32)c1` [10737/G07] belongs 41.8%; to `Cc1c(Br)ccc2c1C(=Cc1ccc3ccccc3c1)C(=O)N2` [10737/C08], 54.1%; to `O=C1Nc2ccc(I)cc2C1=Cc1cccc(F)c1F` [10737/B05], 89.5%.
Take `CCOc1ccc(C=C2C(=O)Nc3c(Br)cc(Br)c(C)c32)cc1` [10737/H02]: the “Met Kinase % Inhibition (P.130)” value was 42.9%.
With `Cc1c(Br)ccc2c1C(=Cc1ccc(Oc3ccccc3)cc1)C(=O)N2` [10737/C09], the “Met Kinase % Inhibition (P.130)” value is on record as 27.6%.
To `Cc1ccc(C=C2C(=O)Nc3ccc(CCCl)cc32)c(C)c1` [10737/G03] belongs 37.4%.
As to `Cc1ccc(C)c(C=C2C(=O)Nc3c(Br)cc(Br)cc32)c1` [10737/A07], the “Met Kinase % Inhibition (P.130)” value is given as 30.1%.
The result for `Cc1ccc(C=C2C(=O)Nc3c(Br)cc(Br)c(C)c32)c(C)c1` [10737/H03] reads 46.1%; that for `COc1ccc(C=C2C(=O)Nc3ccc(I)cc32)cc1F` [10737/B06], 84.7%.
`O=C1Nc2ccc(I)cc2C1=Cc1cc(F)ccc1F` [10737/B04]: the “Met Kinase % Inhibition (P.130)” value turned out to be 88.9%.
Regarding `Cc1ccc(C)c(C=C2C(=O)Nc3ccc(I)cc32)c1` [10737/B07], the “Met Kinase % Inhibition (P.130)” value was 82.5%.
To `COc1cccc(C=C2C(=O)Nc3c(Br)cc(Br)c(C)c32)c1` [10736/H10] belongs 32.1%; to `O=C1Nc2c(Br)cc(Br)cc2C1=Cc1cccc(Oc2cccc(C(F)(F)F)c2)c1` [10737/A11], 25.3%.
The result for `COc1ccc(C=C2C(=O)Nc3ccc(S(=O)(=O)Nc4ccc(C(F)(F)F)cc4)cc32)cc1F` [10737/E06] reads 57.8%.
The result for `Cc1c(Br)cc(Br)c2c1C(=Cc1cccc(F)c1F)C(=O)N2` [10737/H05] reads 76.5%; that for `CNS(=O)(=O)c1ccc2c(c1)C(=Cc1ccc(C)cc1C)C(=O)N2` [10737/D03], 38.6%.
Consider `Cc1ccc(C)c(C=C2C(=O)Nc3ccc(Br)c(C)c32)c1` [10737/C07], for which the “Met Kinase % Inhibition (P.130)” value is reported as 57.5%.
On to `COc1ccc(C=C2C(=O)Nc3c(Br)cc(Br)cc32)cc1F` [10737/A06], for which the “Met Kinase % Inhibition (P.130)” value was determined as 57.1%.
To `O=C1Nc2ccc(S(=O)(=O)N3CCOCC3)cc2C1=Cc1ccc(Oc2ccccc2)cc1` [10737/F09] belongs 76.5%; to `COc1ccc(C=C2C(=O)Nc3ccc(Br)c(C)c32)cc1F` [10737/C06], 38.6%; to `Cc1ccc(C=C2C(=O)Nc3ccc(S(=O)(=O)Nc4ccc(C(F)(F)F)cc4)cc32)c(C)c1` [10737/E03], 13.4%.
To `CNS(=O)(=O)c1ccc2c(c1)C(=Cc1cc(C)ccc1C)C(=O)N2` [10737/D07] belongs 37.0%; to `CNS(=O)(=O)c1ccc2c(c1)C(=Cc1ccc(Oc3ccccc3)cc1)C(=O)N2` [10737/D09], 36.0%; to `O=C1Nc2ccc(S(=O)(=O)Nc3ccc(C(F)(F)F)cc3)cc2C1=Cc1ccc(Oc2ccccc2)cc1` [10737/E09], 21.2%.

Source of the values: patent US20020026053A1, “Novel 3-(substituted) -2- indolinones compounds and use thereof as inhibitors of protein kinase activity” (priority 1997, published 2002).
